This passage reports IC50 results from ChEMBL document CHEMBL1153259, “Spiroepoxycyclohexadienone dimers: cytotoxic bisalkylating agents” (Bioorg Med Chem Lett, 1993).

pIC50: −log10 of the molar value.

What is called pIC50 is −log10 of the IC50, conventionally taken in molar units.

For one test, the system named is A549. In words: Compound was tested for cytotoxicity on A549 lung adenocarcinoma cell line using a proliferation assay (MTT reduction). Format: functional, cell-based. The conditions noted are these: Homo sapiens. (Tetrazolium assays rely on reduction of a dye to a coloured formazan, in cell work by metabolically active cells.)
`O[C@@H]1CCC2C3C=CC(C2[C@@]12CO2)[C@@]1(CO1)[C@@H]3O` (stereo partly specified) had a pIC50 of 4.74.

Molecule `COC1=CC2C3C=CC(C2[C@@]2(CO2)C1=O)[C@@]1(CO1)C3=O` (stereo partly specified) showed a negative-log IC50 (pIC50) of 4.76.

For `O=C1C2C=CC(C3C2C2C/C(=N\Cc4ccccc4)[C@]3(O)CN2Cc2ccccc2)[C@@]12CO2` (stereo partly specified), the pIC50 is < 4.55.

In turn, `COC1=CC2C(C3C=CC2(OC)C(=O)[C@]32CO2)[C@@]2(CO2)C1=O` (stereo partly specified) gave a pIC50 of 5.92.

Regarding `COc1cccc2c1C(=O)c1c(O)c3c(c(O)c1C2=O)C[C@@](O)(C(=O)CO)C[C@@H]3O[C@H]1C[C@H](N)[C@H](O)[C@H](C)O1` [DOXORUBICIN], the pIC50 was 7.00.

For `O[C@@H]1C=CC2C3C=CC(C2[C@@]12CO2)[C@@]1(CO1)[C@@H]3O` (stereo partly specified), the pIC50 is 4.50.

The test system of another test is A549. Nature of the test: Compound was tested for cytotoxicity on A549 lung adenocarcinoma cell line using a proliferation assay (MTT reduction). Format: functional, cell-based. The note with it: Homo sapiens.
With `O=C1C2C=CC(C3C2C=CC(=O)[C@]32CO2)[C@@]12CO2` (stereo partly specified), the pIC50 was 6.12.

For another test, the system named is HT-29. Nature of the test: Compound was tested for cytotoxicity on HT-29 colon cancer cell line using a proliferation assay (MTT reduction). Format: functional, cell-based. The conditions noted are these: Homo sapiens.
Molecule `O=C1C2C=CC(C3C2C=CC(=O)[C@]32CO2)[C@@]12CO2` (stereo partly specified) gave a pIC50 of 6.52.

As for `O[C@@H]1CCC2C3C=CC(C2[C@@]12CO2)[C@@]1(CO1)[C@@H]3O` (stereo partly specified), the pIC50 was 5.22.

With `COC1=CC2C3C=CC(C2[C@@]2(CO2)C1=O)[C@@]1(CO1)C3=O` (stereo partly specified), the pIC50 was 5.24.

The molecule `O=C1C2C=CC(C3C2C2C/C(=N\Cc4ccccc4)[C@]3(O)CN2Cc2ccccc2)[C@@]12CO2` (stereo partly specified) had a pIC50 of 4.57.

For the molecule `COC1=CC2C(C3C=CC2(OC)C(=O)[C@]32CO2)[C@@]2(CO2)C1=O` (stereo partly specified), the pIC50 was 5.44.

In the case of `COc1cccc2c1C(=O)c1c(O)c3c(c(O)c1C2=O)C[C@@](O)(C(=O)CO)C[C@@H]3O[C@H]1C[C@H](N)[C@H](O)[C@H](C)O1` [DOXORUBICIN], the pIC50 is 6.92.

In the case of `O[C@@H]1C=CC2C3C=CC(C2[C@@]12CO2)[C@@]1(CO1)[C@@H]3O` (stereo partly specified), the pIC50 was 4.77.

In the next test the test system is L1210. Nature of the test: Compound was tested for cytotoxicity on L1210 leukemia cell line using a proliferation assay (MTT reduction). Format: functional, cell-based. The conditions noted are these: Mus musculus.
`O=C1C2C=CC(C3C2C=CC(=O)[C@]32CO2)[C@@]12CO2` (stereo partly specified) had a pIC50 of 6.74.

For the molecule `O[C@@H]1CCC2C3C=CC(C2[C@@]12CO2)[C@@]1(CO1)[C@@H]3O` (stereo partly specified), the pIC50 was 4.71.

As to `COC1=CC2C3C=CC(C2[C@@]2(CO2)C1=O)[C@@]1(CO1)C3=O` (stereo partly specified), the pIC50 was < 4.44.

Consider `O=C1C2C=CC(C3C2C2C/C(=N\Cc4ccccc4)[C@]3(O)CN2Cc2ccccc2)[C@@]12CO2` (stereo partly specified), for which the pIC50 is < 4.55.

In the case of `COC1=CC2C(C3C=CC2(OC)C(=O)[C@]32CO2)[C@@]2(CO2)C1=O` (stereo partly specified), the pIC50 was 6.00.

In turn, `COc1cccc2c1C(=O)c1c(O)c3c(c(O)c1C2=O)C[C@@](O)(C(=O)CO)C[C@@H]3O[C@H]1C[C@H](N)[C@H](O)[C@H](C)O1` [DOXORUBICIN] gave a pIC50 of 7.40.

Molecule `O[C@@H]1C=CC2C3C=CC(C2[C@@]12CO2)[C@@]1(CO1)[C@@H]3O` (stereo partly specified) gave a pIC50 of 4.65.
